The values that follow come from patent US20140121732A1, “METHODS AND COMPOSITIONS FOR ADMINISTERING A SPECIFIC WAVELENGTH PHOTOTHERAPY” (Applied Biology, Inc., priority 2011, published 2014).

This series in a line: UV absorbance spectrum and derived transmittance profile of photocream applied at 20 μm. Format: physicochemical. The text has this:
In one embodiment of the present invention, a band-pass photocream is composed such that it is optimized to have maximum transmittance at a therapeutic wavelength of 311 nm for the treatment of vitiligo, psoriasis, atopic dermatitis, and other skin conditions. Said photocream would contain two UV absorbing active ingredients having UV absorbance spectra that when combined in a determined ratio would have a spectral minimum (valley) at 311 nm. For example, a band-pass photocream could be formulated with silymarin (CAS#22888-70-6) and diethylamino hydroxybenzoyl hexyl benzoate (CAS#302776-68-7) in a weight to weight ratio of 2:3 (or less preferably within the range 1:2 to 5:6, or within the range 5:9 to 7:9) to produce an absorbance spectrum with a spectral valley at 311 nm. Said photocream may contain 0.75% (w/w) silymarin (CAS#22888-70-6) and 1.125% (w/w) diethylamino hydroxybenzoyl hexyl benzoate (CAS#302776-68-7). An illustrative absorbance spectrum for such a composition is shown in FIG. 3 when applied at a thickness of 20 μm. […] Alternatively, a band-pass photocream could be formulated with alpha-glucosyl hesperidin (CAS#161713-86-6) and diethylamino hydroxybenzoyl hexyl benzoate (CAS#302776-68-7) in the weight to weight ratio of 4:1 (or less preferably within the range 3:1 to 5:1, or within the range 7:2 to 9:2) to produce an absorbance spectrum with a spectral valley at 311 nm.
In yet another embodiment, a combination of UV absorbing molecules may be formulated to selectively pass UVB light in the range 306-310 nm for the benefit of maximum vitamin D production while still providing limited protecting from erythema. Said photocream may contain two UV absorbing active ingredients having UV absorption spectra that when combined in a determined ratio would have a spectral minimum (valley) at 308 nm. […] Said photocream could contain 1% (w/w) silymarin (CAS#22888-70-6) and 2.5% (w/w) diethylamino hydroxybenzoyl hexyl benzoate (CAS#302776-68-7) and would produce an absorbance spectra shown in FIG. 7 when applied at a thickness of 20 μm. […]

As to `COc1ccc(C(=O)CC(=O)c2ccc(C(C)(C)C)cc2)cc1` [Avobenzone, avobenzone], the “UV absorbance (in words)” value is listed as “significant absorbance in the UVA”.

Regarding `COc1ccc([C@@H]2CC(=O)c3c(O)cc(O[C@@H]4O[C@H](CO[C@@H]5O[C@@H](C)[C@H](O)[C@@H](O)[C@H]5O)[C@@H](O)[C@H](O)[C@H]4O)cc3O2)cc1O` [Hesperidin, hesperidin], the “UV absorbance (in words)” value is given as “significant absorbance in the lower UVB range below roughly 310 nm”.

Consider `COC(=O)C=Cc1ccccc1` [Methyl cinnamate, methyl cinnamate], for which the “UV absorbance (in words)” value is recorded as “significant absorbance in the lower UVB range below roughly 310 nm”.
